# Measured values as given in PubChem BioAssay AID1259411 (Chemical Carcinogenesis Research Information System (CCRIS), 2018).
# Active and inactive are the calls of the source. The rule behind the calls is not given here.
# Tested on: rodent carcinogenicity bioassays, tumor incidence
# Test: CCRIS carcinogenicity studies
# Procedure, shortened: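 NCI-built, expert-reviewed records of carcinogenicity and related test outcomes (mutagenicity, tumor promotion/inhibition) compiled from published and report sources, historical span 1985-2011, not updated.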
smiles,measurement,setting,value
Cc1c2ccccc2c(CO)c2ccc3ccccc3c12,carcinogen call,"Species: MOUSE, Strain/Sex: B6C3F1/MALE, Route: INTRAPERITONEAL, Dose: 0, 0.0025, 0.01, 0.03 UMOL/G IN 10 µL/G TRIOCTANOIN D 12 OF AGE (STUDY DURATION: 10 MO), Dose: 0, 0.0025, 0.01, 0.03 UMOL/G IN 10 µL/G TRIOCTANOIN D 12 OF AGE (STUDY DURATION: 10 MO), Tumor Site: Type of Lesion: LIVER: HEPATOMA",active; positive
same,carcinogen call,"Species: MOUSE, Strain/Sex: B6C3F1/MALE, Route: INTRAPERITONEAL, Dose: 0, 0.0025 UMOL/G IN 10 µL TRIOCTANOIN ON D 12, 16, 20 AND 24 OF AGE (STUDY DURATION: 12 MO), Tumor Site: Type of Lesion: LIVER: HEPATOMA",active; positive
same,carcinogen call,"Species: MOUSE, Strain/Sex: B6C3F1/MALE, Route: INTRAPERITONEAL, Dose: 0, 0.0075, 0.015, 0.03 UMOL/G IN 10 µL/G TRIOCTANOIN ONCE ON D 12 OF AGE (STUDY DURATION: 10 MO), Dose: 0, 0.0075, 0.015, 0.03 UMOL/G IN 10 µL/G TRIOCTANOIN ONCE ON D 12 OF AGE (STUDY DURATION: 10 MO), Tumor Site: Type of Lesion: LIVER: HEPATOMA",active; positive
same,carcinogen call,"Species: MOUSE, Strain/Sex: B6C3F1/MALE, Route: INTRAPERITONEAL, Dose: 0, 0.01, 0.03, 0.06, UMOL/G IN 5 µL/G DMSO ONCE ON D 12 AGE (STUDY DURATION: 10 MO), Dose: 0, 0.01, 0.03, 0.06, UMOL/G IN 5 µL/G DMSO ONCE ON D 12 AGE (STUDY DURATION: 10 MO), Tumor Site: Type of Lesion: LIVER: HEPATOMA",active; positive
same,carcinogen call,"Species: MOUSE, Strain/Sex: B6C3F1/MALE, Route: INTRAPERITONEAL, Dose: 0, 0.03, 0.08, 0.25 UMOL/G IN 10 µL/G TRIOCTANOIN ONCE AT 12 D OF AGE (STUDY DURATION: 8.5 MO), Dose: 0, 0.03, 0.08, 0.25 UMOL/G IN 10 µL/G TRIOCTANOIN ONCE AT 12 D OF AGE (STUDY DURATION: 8.5 MO), Tumor Site: Type of Lesion: LIVER: HEPATOMA",active; positive
same,carcinogen call,"Species: MOUSE, Strain/Sex: STRAIN-A/FEMALE, Route: INTRAPERITONEAL, Dose: 0, 0.01, 0.03, 0.06 UMOL/G IN 5 µL DMSO/G ONCE AT 4-6 WK OF AGE (STUDY DURATION: 6 MO), Dose: 0, 0.01, 0.03, 0.06 UMOL/G IN 5 µL DMSO/G ONCE AT 4-6 WK OF AGE (STUDY DURATION: 6 MO), Tumor Site: Type of Lesion: LUNG: ADENOMA",active; positive
same,carcinogen call,"Species: RAT, Strain/Sex: SPRAGUE-DAWLEY/FEMALE, Route: SUBCUTANEOUS, Dose: 0, 0.2 UMOL 3/WK FOR 20 DOSES (STUDY DURATION: 52 WK), Tumor Site: Type of Lesion: INJECTION SITE: SARCOMA",active; positive
same,carcinogen call,"Species: RAT, Strain/Sex: SPRAGUE-DAWLEY/FEMALE, Route: SUBCUTANEOUS, Dose: 0, 2 UMOL IN 0.25 ML TRIOCTANOIN INTO LEFT HIND LEG AT ABOUT 40 D OF AGE FOLLOWED BY A SECOND DOSE 6 D LATER (STUDY DURA",inactive; negative
same,carcinogen call,"Species: RAT, Strain/Sex: SPRAGUE-DAWLEY/FEMALE, Route: SUBCUTANEOUS, Dose: 0, 2 UMOL IN 0.25 ML TRIOCTANOIN ONCE INTO LEFT HIND LEG AT ABOUT 40 D OF AGE (STUDY DURATION: 16 MO)",inactive; negative
CCCCC(CC)COS(=O)(=O)O (centres undefined),carcinogen call,"Species: MOUSE, Strain/Sex: B6C3F1/FEMALE, Route: ORAL, Dose: 0, 10000, 20000 PPM IN DIET FOR 102-104 WK (STUDY DURATION: 102-104 WK), Dose: 0, 10000, 20000 PPM IN DIET FOR 102-104 WK (STUDY DURATION: 102-104 WK), Tumor Site: Type of Lesion: LIVER: CARCINOMA, CARCINOMA OR ADENOMA",active; positive
same,carcinogen call,"Species: MOUSE, Strain/Sex: B6C3F1/MALE, Route: ORAL, Dose: 0, 5000, 10000 PPM IN DIET FOR 102-104 WK (STUDY DURATION: 102-104 WK), Dose: 0, 5000, 10000 PPM IN DIET FOR 102-104 WK (STUDY DURATION: 102-104 WK)",inactive; negative
same,carcinogen call,"Species: RAT, Strain/Sex: F344/FEMALE, Route: ORAL, Dose: 0, 10000, 20000 PPM IN DIET FOR 102-104 WK (STUDY DURATION: 102-104 WK), Dose: 0, 10000, 20000 PPM IN DIET FOR 102-104 WK (STUDY DURATION: 102-104 WK)",inactive; negative
same,carcinogen call,"Species: RAT, Strain/Sex: F344/MALE, Route: ORAL, Dose: 0, 10000, 20000 PPM IN DIET FOR 102-104 WK (STUDY DURATION: 102-104 WK), Dose: 0, 10000, 20000 PPM IN DIET FOR 102-104 WK (STUDY DURATION: 102-104 WK)",inactive; negative
NNC(=O)c1cccnc1,carcinogen call,"Species: MOUSE, Strain/Sex: SWISS/FEMALE, Route: ORAL, Dose: 0, 0.125% IN DRINKING WATER FOR LIFE, STUDY DURATION: 100-110 WK, Dose: 0, 0.125% IN DRINKING WATER FOR LIFE, STUDY DURATION: 100-110 WK, Tumor Site: Type of Lesion: LUNG: ADENOMA, ADENOMA OR ADENOCARCINOMA",active; positive
same,carcinogen call,"Species: MOUSE, Strain/Sex: SWISS/MALE, Route: ORAL, Dose: 0, 0.125% IN DRINKING WATER FOR LIFE, STUDY DURATION: 90-100 WK, Dose: 0, 0.125% IN DRINKING WATER FOR LIFE, STUDY DURATION: 90-100 WK, Tumor Site: Type of Lesion: LUNG: ADENOMA OR ADENOCARCINOMA",active; positive
C[C@]12CC[C@@H]3c4cc(O)c(O)cc4CC[C@H]3[C@@H]1CC[C@@H]2O,carcinogen call,"Species: MOUSE, Strain/Sex: CD-1/FEMALE, Route: SUBCUTANEOUS, Dose: 0, 2 UG/D IN CORN OIL ON DAYS 1-5 OF LIFE (STUDY DURATION: 12-18 WK), Tumor Site: Type of Lesion: UTERUS: ADENOCARCINOMA",active; positive
O=CNNC=O,carcinogen call,"Species: MOUSE, Strain/Sex: SWISS/FEMALE, Route: ORAL, Dose: 0, 2% SOLUTION IN DRINKING WATER FROM AGE 6 WK FOR LIFE FOR AN AVERAGE DAILY INTAKE OF 0, 144 MG, Dose: 0, 2% SOLUTION IN DRINKING WATER FROM AGE 6 WK FOR LIFE FOR AN AVERAGE DAILY INTAKE OF 0, 144 MG, Tumor Site: Type of Lesion: LUNG: ADENOMA OR ADENOCARCINOMA",active; positive
same,carcinogen call,"Species: MOUSE, Strain/Sex: SWISS/MALE, Route: ORAL, Dose: 0, 2% SOLUTION IN DRINKING WATER FROM AGE 6 WK FOR LIFE FOR AN AVERAGE DAILY INTAKE OF 0, 146 MG, Dose: 0, 2% SOLUTION IN DRINKING WATER FROM AGE 6 WK FOR LIFE FOR AN AVERAGE DAILY INTAKE OF 0, 146 MG, Tumor Site: Type of Lesion: LUNG: ADENOMA OR ADENOCARCINOMA",active; positive
CN(C)/C=N/c1nnc(/C=C/c2ccc([N+](=O)[O-])o2)o1,carcinogen call,"Species: RAT, Route: ORAL, Tumor Site: Type of Lesion: MAMMARY GLAND, INTESTINES",active; positive
CCCCCCc1ccc(O)cc1O,carcinogen call,"Species: MOUSE, Strain/Sex: B6C3F1/FEMALE, Route: GAVAGE, Dose: 0, 62.5, 125 MG/KG IN CORN OIL 5D/WK FOR 102 WK (STUDY DURATION: 104 WK), Dose: 0, 62.5, 125 MG/KG IN CORN OIL 5D/WK FOR 102 WK (STUDY DURATION: 104 WK)",inactive; negative
same,carcinogen call,"Species: MOUSE, Strain/Sex: B6C3F1/MALE, Route: GAVAGE, Dose: 0, 62.5, 125 MG/KG IN CORN OIL 5D/WK FOR 102 WK (STUDY DURATION: 104 WK), Dose: 0, 62.5, 125 MG/KG IN CORN OIL 5D/WK FOR 102 WK (STUDY DURATION: 104 WK), Tumor Site: Type of Lesion: ADRENAL GLAND: PHEOCHROMOCYTOMA, HARDERIAN GLAND: ADENOMA OR CARCINOMA",equivocal
same,carcinogen call,"Species: RAT, Strain/Sex: F344/FEMALE, Route: GAVAGE, Dose: 0, 62.5, 125 MG/KG IN CORN OIL 5D/WK FOR 103 WK (STUDY DURATION: 104 WK), Dose: 0, 62.5, 125 MG/KG IN CORN OIL 5D/WK FOR 103 WK (STUDY DURATION: 104 WK)",inactive; negative
same,carcinogen call,"Species: RAT, Strain/Sex: F344/MALE, Route: GAVAGE, Dose: 0, 62.5, 125 MG/KG IN CORN OIL 5D/WK FOR 103 WK (STUDY DURATION: 104 WK), Dose: 0, 62.5, 125 MG/KG IN CORN OIL 5D/WK FOR 103 WK (STUDY DURATION: 104 WK)",inactive; negative
O=Cc1ccc(CCl)o1,carcinogen call,"Species: MOUSE, Strain/Sex: B6C3F1/MALE, Route: INTRAPERITONEAL, Dose: 0, 0.1, 0.25 UMOL/G IN 5 µL DMSO/G BW ONCE (STUDY DURATION: 10 MO), Dose: 0, 0.1, 0.25 UMOL/G IN 5 µL DMSO/G BW ONCE (STUDY DURATION: 10 MO), Tumor Site: Type of Lesion: LIVER: TUMOR",active; positive
